Test: xn = mol fraction of the nth substance listed
Conditions: Liquid; for mass density: Vibrating tube method; for viscosity: 101 kPa, Concentric cylinders viscometry

C1CCCCC1 [cyclohexane] + CCCCO
mass density [kg/m3]
Conditions	x2 = 0.1	x2 = 0.2	x2 = 0.3003	x2 = 0.4005	x2 = 0.4997	x2 = 0.6001	x2 = 0.6999	x2 = 0.7998	x2 = 0.8999
293.15 K, 100 kPa	779.5	781.4	783.9	786.6	789.7	793.1	796.8	800.7	805
293.15 K, 1000 kPa	780.2	782	784.5	787.3	790.3	793.7	797.4	801.3	805.6
293.15 K, 2000 kPa	781	782.9	785.3	788.1	791.1	794.5	798.2	802	806.3
293.15 K, 5000 kPa	783.5	785.3	787.7	790.5	793.4	796.9	800.4	804.3	808.5
293.15 K, 10000 kPa	787.3	789.2	791.6	794.3	797.2	800.5	804	807.9	812
293.15 K, 15000 kPa	791.1	792.8	795.2	797.8	800.8	804	807.5	811.3	815.4
293.15 K, 20000 kPa	794.5	796.3	798.6	801.3	804.2	807.4	810.8	814.5	818.6
303.15 K, 100 kPa	770.1	772	774.6	777.6	780.9	784.5	788.5	792.3	797.1
303.15 K, 1000 kPa	770.8	772.8	775.3	778.3	781.6	785.2	789.1	793.2	797.8
303.15 K, 2000 kPa	771.7	773.7	776.2	779.2	782.5	786	789.9	794.1	798.6
303.15 K, 5000 kPa	774.4	776.3	778.8	781.7	785	788.5	792.4	796.4	800.9
303.15 K, 10000 kPa	778.5	780.4	782.9	785.7	788.9	792.5	796.2	800.2	804.6
303.15 K, 15000 kPa	782.4	784.3	786.7	789.6	792.7	796.1	799.8	803.8	808.1
303.15 K, 20000 kPa	786.2	788	790.4	793.2	796.3	799.6	803.3	807.2	811.5
303.15 K, 30000 kPa	793.2	795	797.4	800.2	803.1	806.4	810	813.8	817.9
303.15 K, 40000 kPa	799.6	801.4	803.8	806.5	809.4	812.6	816.1	819.8	823.8
313.15 K, 100 kPa	760.4	762.5	765.2	768.4	771.8	775.7	779.8	784.3	789.1
313.15 K, 1000 kPa	761.3	763.3	766.1	769.2	772.7	776.5	780.6	785	789.8
313.15 K, 2000 kPa	762.2	764.3	767	770.1	773.6	777.4	781.5	785.9	790.7
313.15 K, 5000 kPa	765.1	767.1	769.7	772.8	776.2	780	784.1	788.4	793.1
313.15 K, 10000 kPa	769.5	771.5	774.1	777.1	780.5	784.1	788.1	792.4	797
313.15 K, 15000 kPa	773.6	775.6	778.2	781.2	784.4	788	791.9	796.1	800.6
313.15 K, 20000 kPa	777.7	779.5	782.1	785	788.3	791.8	795.6	799.8	804.2
313.15 K, 30000 kPa	785.1	787	789.4	792.3	795.4	798.9	802.6	806.6	811
313.15 K, 40000 kPa	791.9	793.7	796.2	799	802	805.3	809	812.9	817.1
313.15 K, 50000 kPa	798.3	800.1	802.5	805.1	808.1	811.4	815	818.8	822.9
313.15 K, 60000 kPa	804.2	806	808.4	810.9	813.8	817	820.5	824.4	–

viscosity [mPa·s]
Conditions	x2 = 0	x2 = 0.1073	x2 = 0.1991	x2 = 0.2998	x2 = 0.4006	x2 = 0.4997	x2 = 0.6001	x2 = 0.7001	x2 = 0.7997	x2 = 0.8996
293.15 K	0.98	0.997	1.042	1.11	1.277	1.462	1.69	1.95	2.243	2.576
303.15 K	0.824	0.837	0.87	0.924	1.038	1.17	1.337	1.528	1.747	1.998
313.15 K	0.701	0.708	0.731	0.772	0.855	0.95	1.074	1.218	1.382	1.573

From the NIST ThermoML archive (doi:10.1016/j.jct.2014.01.020)
